ChEMBL document CHEMBL1128834, “Potent mammalian topoisomerase II inhibitors: 1-cyclopropyl-6,8-difluoro-1,4-dihydro-7-(2,6-dimethyl-4-pyridinyl)-4-substituted-quinolines” (Bioorg Med Chem Lett, 1995)

Tested on: Mus musculus
Test: In vivo antitumor activity was observed in mice at a dose of 96 mg/kg administered intravenously
Type: functional
Conditions: route intravenous

Row | Structure (SMILES) | T/C
1 | COc1cc([C@@H]2c3cc4c(cc3[C@@H](O[C@@H]3O[C@@H]5CO[C@@H](C)O[C@H]5[C@H](O)[C@H]3O)[C@H]3COC(=O)[C@H]23)OCO4)cc(OC)c1O [ETOPOSIDE] | 3%

Tested on: P388
Test: In vitro cytotoxicity was determined by quantitating P388 murine leukemia cells on a coultier counter following a 48 hour exposure of cells to the test compound
Type: functional, cell-based
Conditions: Mus musculus, P388, 48 h

Row | Structure (SMILES) | IC50
2 | Cc1cc(-c2c(F)cc3/c(=N/Nc4ccccn4)ccn(C4CC4)c3c2F)cc(C)n1 | 1 µM
3 | Cc1cc(-c2c(F)cc3/c(=N/N(C)C)ccn(C4CC4)c3c2F)cc(C)n1 | 0.27 µM
4 | Cc1cc(-c2c(F)cc3c(=O)ccn(C4CC4)c3c2F)cc(C)n1 | 9.7 µM

Tested on: P388
Test: In vitro cytotoxicity was determined by quantitating P388 murine leukemia cells on a oultier counter following a 48 hour exposure of cells to the test compound
Type: functional, cell-based
Conditions: Mus musculus, P388, 48 h

Row | Structure (SMILES) | IC50
5 | Cc1cc(-c2c(F)cc3/c(=N/N)ccn(C4CC4)c3c2F)cc(C)n1 | 3 µM

Tested on: P388
Test: In vitro cytotoxicity was determined by quantitating P388 murine leukemia cells on a Coulter Counter following a 48 hour exposure of cells to the test compound
Type: functional, cell-based
Conditions: Mus musculus, P388, 48 h

Row | Structure (SMILES) | IC50
6 | COc1cc([C@@H]2c3cc4c(cc3[C@@H](O[C@@H]3O[C@@H]5CO[C@@H](C)O[C@H]5[C@H](O)[C@H]3O)[C@H]3COC(=O)[C@H]23)OCO4)cc(OC)c1O [ETOPOSIDE] | 0.12 µM

Biological target: DNA topoisomerase II (Homo sapiens, UniProt P11388+Q02880)
Test: Inhibitory activity in a cell-free assay of DNA cleavage mediated by purified HeLa cell topoisomerase II.
Conditions: not given

Row | EC50 | Structure (SMILES)
7 | 7.6 µM | Cc1cc(-c2c(F)cc3/c(=N/c4ccc(N)cc4)ccn(C4CC4)c3c2F)cc(C)n1
8 | 1.4 µM | Cc1cc(-c2c(F)cc3/c(=N\O)ccn(C4CC4)c3c2F)cc(C)n1
9 | 14 µM | Cc1cc(-c2c(F)cc3/c(=N/CCN(C)C)ccn(C4CC4)c3c2F)cc(C)n1
10 | 12 µM | Cc1cc(-c2c(F)cc3c(=N)ccn(C4CC4)c3c2F)cc(C)n1
11 | 76 µM | Cc1cc(-c2c(F)cc3c(=S)ccn(C4CC4)c3c2F)cc(C)n1
12 | 3.6 µM | Cc1cc(-c2c(F)cc3/c(=N/c4ccccn4)ccn(C4CC4)c3c2F)cc(C)n1
13 | 20 µM | CC(=O)N/N=c1\ccn(C2CC2)c2c(F)c(-c3cc(C)nc(C)c3)c(F)cc12
14 | 5.5 µM | Cc1cc(-c2c(F)cc3/c(=N/CCCN(C)C)ccn(C4CC4)c3c2F)cc(C)n1
15 | 2.4 µM | Cc1cc(-c2c(F)cc3/c(=N/C4CC4)ccn(C4CC4)c3c2F)cc(C)n1
16 | 0.98 µM | Cc1cc(-c2c(F)cc3/c(=N/Nc4ccccn4)ccn(C4CC4)c3c2F)cc(C)n1
17 | 3.1 µM | Cc1cc(-c2c(F)cc3/c(=N/NC(N)=O)ccn(C4CC4)c3c2F)cc(C)n1
18 | 2.3 µM | Cc1cc(-c2c(F)cc3/c(=N/N(C)C)ccn(C4CC4)c3c2F)cc(C)n1
19 | 3.2 µM | Cc1cc(-c2c(F)cc3/c(=N/NCCO)ccn(C4CC4)c3c2F)cc(C)n1
20 | 1.7 µM | Cc1cc(-c2c(F)cc3/c(=N/N)ccn(C4CC4)c3c2F)cc(C)n1
21 | 1.9 µM | CN/N=c1\ccn(C2CC2)c2c(F)c(-c3cc(C)nc(C)c3)c(F)cc12
22 | 1.6 µM | Cc1cc(-c2c(F)cc3/c(=N/c4ccccc4O)ccn(C4CC4)c3c2F)cc(C)n1
23 | 2.6 µM | CO/N=c1/ccn(C2CC2)c2c(F)c(-c3cc(C)nc(C)c3)c(F)cc12

The next lines start with the molecule.

Row | Structure (SMILES) | EC50
24 | Cc1cc(-c2c(F)cc3/c(=N/Sc4ccccn4)ccn(C4CC4)c3c2F)cc(C)n1 | 3.8 µM
25 | Cc1ccc(S(=O)(=O)/N=c2\ccn(C3CC3)c3c(F)c(-c4cc(C)nc(C)c4)c(F)cc23)cc1 | 45 µM
26 | Cc1cc(-c2c(F)cc3/c(=N/Sc4ccc(Cl)cc4)ccn(C4CC4)c3c2F)cc(C)n1 | 9.4 µM
27 | Cc1cc(-c2c(F)cc3c(c2F)N(C2CC2)C=C/C3=C/C#N)cc(C)n1 | 4 µM
28 | Cc1cc(-c2c(F)cc3/c(=N/N4C(=O)c5ccccc5C4=O)ccn(C4CC4)c3c2F)cc(C)n1 | 16 µM
29 | Cc1cc(-c2c(F)cc3c(c2F)N(C2CC2)C=CC3=C(C#N)C#N)cc(C)n1 | 6.3 µM
30 | Cc1cc(-c2c(F)cc3/c(=N/Nc4cnc5ccccc5c4)ccn(C4CC4)c3c2F)cc(C)n1 | 92 µM
31 | CCOC(=O)/C(C#N)=C1\C=CN(C2CC2)c2c1cc(F)c(-c1cc(C)nc(C)c1)c2F | 4.8 µM
32 | Cc1cc(-c2c(F)cc3/c(=N/Nc4c5ccccc5nc5ccccc45)ccn(C4CC4)c3c2F)cc(C)n1 | 21 µM

Same assay, conditions: read-out: EC50

Row | EC50 | Structure (SMILES)
33 | 2.7 µM | Cc1cc(-c2c(F)cc3c4nn(-c5ccccc5)c(=O)c-4cn(C4CC4)c3c2F)cc(C)n1

Tested on: Mus musculus
Test: In vivo antitumor activity was observed in mice at a dose of […] administered intravenously, subcutaneously
Type: functional
Conditions: route intravenous

Row | Structure (SMILES) | T/C
34 | Cc1cc(-c2c(F)cc3/c(=N/Nc4ccccn4)ccn(C4CC4)c3c2F)cc(C)n1 | 37%
